Laboratory results as given in patent US20240285670A1, “THERAPEUTIC TREATMENT OF TUMORS BY BLOCKING THE HEME SYNTHESIS-EXPORT AXIS” (Università degli Studi di Torino, priority 2021, published 2024).

Test system: BTECs
Assay: TCA cycle flux in BTECs
Format: cell-based, human
Conditions: FLVCR1a-silenced vs scramble shRNA BTECs
Description: Results were expressed as nmol NAD*/min/mg mitochondrial protein for complex I, nmol reduced cytochrome c/min/mg mitochondrial protein for complexes II-III, nmol oxidized cytochrome c/min/mg mitochondrial protein for complex IV. Data represent mean±SEM, n=3. For statistical analyses, an unpaired Student's t-test was used; *=p<0.05, **=p<0.01, *=p<0.001. […] Results are expressed as nmol/mg mitochondrial proteins. Data represent mean±SEM, n=3. For statistical analyses, an unpaired Student's t-test was used; *=p<0.05. […] Results are expressed as pmol CO2/h/mg protein. Data represent mean±SEM, n=3. For statistical analyses, an unpaired Student's t-test was used; **=p<0.01. […] Results were expressed as nmol NAD*/min/mg mitochondrial protein for complex I, nmol reduced cytochrome c/min/mg mitochondrial protein for complexes II-III, nmol oxidized cytochrome c/min/mg mitochondrial protein for complex IV. […] Results are expressed as nmol/mg mitochondrial proteins. […] Results are expressed as pmol CO2/h/mg protein. […] (H) TCA cycle enzymes activities are reported in boxes and expressed as mU/mg mitochondrial proteins. […] Results were expressed as nmol NAD^+/min/mg mitochondrial protein for complex I, nmol reduced cytochrome c/min/mg mitochondrial protein for complexes II-III, nmol oxidized cytochrome c/min/mg mitochondrial protein for complex IV. […] Results are expressed as nmol/mg mitochondrial proteins. […]

Substance: FLVCR1a shRNA: shRNA specifically down-regulating FLVCR1a without targeting FLVCR1b; pLKO.1 lentiviral clone TRCN0000059599, antisense SEQ ID No.: 2 (antisense TTGCTAATGATGCTGTACTGG; sense CCAGTACAGCATCATTAGCAA)
- TCA cycle flux: increased TCA cycle flux
